Measurements taken from EP4477653A1 (Perha Pharmaceuticals, priority 2023, dated 2024).

Biological target: T1, human recombinant A3AR (expressed in HEK-293 cells) (Homo sapiens, UniProt P0DMS8)
T1 construct: host or cells: HEK-293 cells
T1 sequence (P0DMS8 1-318): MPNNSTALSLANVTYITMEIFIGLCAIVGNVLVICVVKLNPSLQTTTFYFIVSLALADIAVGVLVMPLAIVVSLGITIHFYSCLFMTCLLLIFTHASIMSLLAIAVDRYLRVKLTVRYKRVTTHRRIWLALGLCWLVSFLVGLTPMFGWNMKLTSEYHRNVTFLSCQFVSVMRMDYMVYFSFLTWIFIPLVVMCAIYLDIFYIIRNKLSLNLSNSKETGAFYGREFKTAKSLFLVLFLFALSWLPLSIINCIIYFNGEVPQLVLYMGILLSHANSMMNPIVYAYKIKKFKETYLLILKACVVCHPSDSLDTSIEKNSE
Assay: Adenosine receptors antagonism assay (Eurofins), [125I]-AB-MECA radioligand competition
Assay type: binding
Conditions: [125I]-AB-MECA 0.15 nM, r.t., 120 min; IC50 from dose-response curves; read-out: Potency Class A3AR

| IC50 | Compound |
| --- | --- |
| 1 to 10 nM | CCC(CC)Nc1cc(NCc2ccc(O)cc2)c2nnc(C(C)C)n2n1 [compound 42, 4-[[[6-(1-ethylpropylamino)-3-isopropyl-[1,2,4]triazolo[4,3-b]pyridazin-8-yl]amino]methyl]phenol] |
| 10 to 100 nM | CC(C)c1nnc2c(NCc3ccccc3O)cc(N[C@@H]3CCCOC3)nn12 [compound 43, 2-[[[3-isopropyl-6-[[(3R)-tetrahydropyran-3-yl]amino]-[1,2,4]triazolo[4,3-b]pyridazin-8-yl]amino]methyl]phenol] |
| 10 to 100 nM | CC(C)c1nnc2c(NCc3ccccc3O)cc(NC3CCOCC3)nn12 [compound 44, 2-[[[3-isopropyl-6-(tetrahydropyran-4-ylamino)-[1,2,4]triazolo[4,3-b]pyridazin-8-yl]amino]methyl]phenol] |
| 1 to 10 nM | CCC(CC)Nc1cc(Nc2ccccc2)c2nnc(C(C)C)n2n1 [compound 45, N6-(1-ethylpropyl)-3-isopropyl-N8-phenyl-[1,2,4]triazolo[4,3-b]pyridazine-6,8-diamine] |
| < 1 nM | CCC(CC)Nc1cc(Nc2ccccn2)c2nnc(C(C)C)n2n1 [compound 46, N6-(1-ethylpropyl)-3-isopropyl-N8-(2-pyridyl)-[1,2,4]triazolo[4,3-b]pyridazine-6,8-diamine] |
| < 1 nM | CCC(CC)Nc1cc(Nc2cccnc2)c2nnc(C(C)C)n2n1 [compound 47, N6-(1-ethylpropyl)-3-isopropyl-N8-(3-pyridyl)-[1,2,4]triazolo[4,3-b]pyridazine-6,8-diamine] |
| 1 to 10 nM | CCC(CC)Nc1cc(Nc2ccncc2)c2nnc(C(C)C)n2n1 [compound 48, N6-(1-ethylpropyl)-3-isopropyl-N8-(4-pyridyl)-[1,2,4]triazolo[4,3-b]pyridazine-6,8-diamine] |
| 1 to 10 nM | CCC(CC)Nc1cc(NCc2ccncc2)c2nnc(C(C)C)n2n1 [compound 49, N6-(1-ethylpropyl)-3-isopropyl-N8-(4-pyridylmethyl)-[1,2,4]triazolo[4,3-b]pyridazine-6,8-diamine] |
| 1 to 10 nM | CCC(CC)Nc1cc(NCc2cccnc2)c2nnc(C(C)C)n2n1 [compound 50, N6-(1-ethylpropyl)-3-isopropyl-N8-(3-pyridylmethyl)-[1,2,4]triazolo[4,3-b]pyridazine-6,8-diamine] |
| 1 to 10 nM | CCC(CC)Nc1cc(NCc2ccccn2)c2nnc(C(C)C)n2n1 [compound 51, N6-(1-ethylpropyl)-3-isopropyl-N8-(2-pyridylmethyl)-[1,2,4]triazolo[4,3-b]pyridazine-6,8-diamine] |
| 1 to 10 nM | CC(C)c1nnc2c(NCc3ccccn3)cc(NC(C)(C)C)nn12 [compound 52, N6-tert-butyl-3-isopropyl-N8-(2-pyridylmethyl)-[1,2,4]triazolo[4,3-b]pyridazine-6,8-diamine] |
| 1 to 10 nM | CC(C)c1nnc2c(NCc3ccccn3)cc(NC3CC4(CCC4)C3)nn12 [compound 53, 3-isopropyl-N8-(2-pyridylmethyl)-N6-spiro[3.3]heptan-2-yl-[1,2,4]triazolo[4,3-b]pyridazine-6,8-diamine] |
| 10 to 100 nM | CC(C)c1nnc2c(NCc3ccccn3)cc(NC3CC(F)(F)C3)nn12 [compound 54, N6-(3,3-difluorocyclobutyl)-3-isopropyl-N8-(2-pyridylmethyl)-[1,2,4]triazolo[4,3-b]pyridazine-6,8-diamine] |
| 10 to 100 nM | CC(C)c1nnc2c(NCc3ccccn3)cc(NC3CCC(F)(F)CC3)nn12 [compound 55, N6-(4,4-difluorocyclohexyl)-3-isopropyl-N8-(2-pyridylmethyl)-[1,2,4]triazolo[4,3-b]pyridazine-6,8-diamine] |
| 1 to 10 nM | CC(C)c1nnc2c(NCc3ccccn3)cc(NCc3ccccc3)nn12 [compound 56, N6-benzyl-3-isopropyl-N8-(2-pyridylmethyl)-[1,2,4]triazolo[4,3-b]pyridazine-6,8-diamine] |
| 100 to 1000 nM | CCC(CC)Nc1cc(NCc2ccccn2)c2nncn2n1 [compound 57, N6-(1-ethylpropyl)-N8-(2-pyridylmethyl)-[1,2,4]triazolo[4,3-b]pyridazine-6,8-diamine] |
| 10 to 100 nM | CCC(CC)Nc1cc(NCc2ccccn2)c2nnc(C)n2n1 [compound 58, N6-(1-ethylpropyl)-3-methyl-N8-(2-pyridylmethyl)-[1,2,4]triazolo[4,3-b]pyridazine-6,8-diamine] |
| 1 to 10 nM | CCc1nnc2c(NCc3ccccn3)cc(NC(CC)CC)nn12 [compound 59, 3-ethyl-N6-(1-ethylpropyl)-N8-(2-pyridylmethyl)-[1,2,4]triazolo[4,3-b]pyridazine-6,8-diamine] |
| 10 to 100 nM | CCCc1nnc2c(NCc3ccccn3)cc(NC(CC)CC)nn12 [compound 60, N6-(1-ethylpropyl)-3-propyl-N8-(2-pyridylmethyl)-[1,2,4]triazolo[4,3-b]pyridazine-6,8-diamine] |

| IC50 | Compound |
| --- | --- |
| 10 to 100 nM | CCC(CC)Nc1cc(NCc2ccccn2)c2nnc(C(C)(C)C)n2n1 [compound 61, 3-tert-butyl-N6-(1-ethylpropyl)-N8-(2-pyridylmethyl)-[1,2,4]triazolo[4,3-b]pyridazine-6,8-diamine] |
| 1 to 10 nM | CCC(CC)Nc1cc(NCc2ccccn2)c2nnc(C3CC3)n2n1 [compound 62, 3-cyclopropyl-N6-(1-ethylpropyl)-N8-(2-pyridylmethyl)-[1,2,4]triazolo[4,3-b]pyridazine-6,8-diamine] |
| 1 to 10 nM | CCC(CC)Nc1cc(NCc2ccccn2)c2nnc(C3CCC3)n2n1 [compound 63, 3-cyclobutyl-N6-(1-ethylpropyl)-N8-(2-pyridylmethyl)-[1,2,4]triazolo[4,3-b]pyridazine-6,8-diamine] |
| 10 to 100 nM | CCC(CC)Nc1cc(NCc2ccccn2)c2nnc(C3CCCC3)n2n1 [compound 64, 3-cyclopentyl-N6-(1-ethylpropyl)-N8-(2-pyridylmethyl)-[1,2,4]triazolo[4,3-b]pyridazine-6,8-diamine] |
| 100 to 1000 nM | CCC(CC)Nc1cc(NCc2ccccn2)c2nnc(C3CCCCC3)n2n1 [compound 65, 3-cyclohexyl-N6-(1-ethylpropyl)-N8-(2-pyridylmethyl)-[1,2,4]triazolo[4,3-b]pyridazine-6,8-diamine] |
| 10 to 100 nM | CCC(CC)Nc1cc(NCc2ccccn2)c2nnc(-c3ccccc3)n2n1 [compound 66, N6-(1-ethylpropyl)-3-phenyl-N8-(2-pyridylmethyl)-[1,2,4]triazolo[4,3-b]pyridazine-6,8-diamine] |
| 1 to 10 nM | CCC(CC)Nc1cc(NCc2ccccn2)c2nnc(C(C)CC)n2n1 (stereo not shown) [compound 67, N6-(1-ethylpropyl)-N8-(2-pyridylmethyl)-3-sec-butyl-[1,2,4]triazolo[4,3-b]pyridazine-6,8-diamine] |
| 1 to 10 nM | CCC(CC)Nc1cc(NCc2ccccn2)c2nnc(C(CC)CC)n2n1 [compound 68, N6,3-bis(1-ethylpropyl)-N8-(2-pyridylmethyl)-[1,2,4]triazolo[4,3-b]pyridazine-6,8-diamine] |
| 10 to 100 nM | CCC(CC)Nc1cc(NCc2ccccn2)c2nnc(CC(C)C)n2n1 [compound 69, N6-(1-ethylpropyl)-3-isobutyl-N8-(2-pyridylmethyl)-[1,2,4]triazolo[4,3-b]pyridazine-6,8-diamine] |
| 100 to 1000 nM | CCC(CC)Nc1cc(NCc2ccccn2)c2nnc(-c3ccccn3)n2n1 [compound 70, N6-(1-ethylpropyl)-3-(2-pyridyl)-N8-(2-pyridylmethyl)-[1,2,4]triazolo[4,3-b]pyridazine-6,8-diamine] |
| 10 to 100 nM | CCC(CC)Nc1cc(NCc2ccccn2)c2nnc(-c3cccnc3)n2n1 [compound 71, N6-(1-ethylpropyl)-3-(3-pyridyl)-N8-(2-pyridylmethyl)-[1,2,4]triazolo[4,3-b]pyridazine-6,8-diamine] |
| 10 to 100 nM | CCC(CC)Nc1cc(NCc2ccccn2)c2nnc(-c3ccncc3)n2n1 [compound 72, N6-(1-ethylpropyl)-3-(4-pyridyl)-N8-(2-pyridylmethyl)-[1,2,4]triazolo[4,3-b]pyridazine-6,8-diamine] |
| 1 to 10 nM | CCC(CC)Nc1cc(NCc2ccccc2OC)c2nnc(C(C)C)n2n1 [compound 73, N6-(1-ethylpropyl)-3-isopropyl-N8-[(2-methoxyphenyl)methyl]-[1,2,4]triazolo[4,3-b]pyridazine-6,8-diamine] |
| 10 to 100 nM | CC[C@H](CO)Nc1cc(NCc2ccc(N)cc2)c2nnc(C(C)C)n2n1 [compound 74, (2R)-2-[[8-[(4-aminophenyl)methylamino]-3-isopropyl-[1,2,4]triazolo[4,3-b]pyridazin-6-yl]amino]butan-1-ol] |
| 1 to 10 nM | CCC(CC)Nc1cc(NCc2ccc(N)cc2)c2nnc(C(C)C)n2n1 [compound 75, N8-[(4-aminophenyl)methyl]-N6-(1-ethylpropyl)-3-isopropyl-[1,2,4]triazolo[4,3-b]pyridazine-6,8-diamine] |
| 1 to 10 nM | CCC(CC)Nc1cc(NCc2cccc(N)c2)c2nnc(C(C)C)n2n1 [compound 76, N8-[(3-aminophenyl)methyl]-N6-(1-ethylpropyl)-3-isopropyl-[1,2,4]triazolo[4,3-b]pyridazine-6,8-diamine] |
| 10 to 100 nM | CCC(CC)Nc1cc(NCc2ccccc2N)c2nnc(C(C)C)n2n1 [compound 77, N8-[(2-aminophenyl)methyl]-N6-(1-ethylpropyl)-3-isopropyl-[1,2,4]triazolo[4,3-b]pyridazine-6,8-diamine] |
| 10 to 100 nM | CCC(CC)Nc1cc(NCc2cc3ccccc3[nH]2)c2nnc(C(C)C)n2n1 [compound 78, N6-(1-ethylpropyl)-N8-(1H-indol-2-ylmethyl)-3-isopropyl-[1,2,4]triazolo[4,3-b]pyridazine-6,8-diamine] |
